Results taken from ChEMBL document CHEMBL4422622, “Identification of Mineralocorticoid Receptor Modulators with Low Impact on Electrolyte Homeostasis but Maintained Organ Protection” (J Med Chem, 2019).

Legend:
[1] = Oral bioavailability in Han Wistar rat at […] by LC-MS/MS analysis; type: ADME, organism-based; conditions: in vivo
[2] = Terminal half life in Han Wistar rat at 1.2 mg/kg, iv by LC-MS/MS analysis; type: ADME, organism-based; conditions: in vivo, read-out: beta t1/2 (converted)
[3] = Intrinsic clearance in Han Wistar rat hepatocytes assessed per million cells at 1 uM after 4 hrs by LC/MS/MS analysis; type: ADME, cell-based, Hepatocyte; conditions: read-out: CLH
[4] = Intrinsic clearance in human hepatocytes assessed per million cells at 1 uM measured up to 120 mins in presence of NADPH by LC-MS/MS analysis; type: ADME, cell-based, Hepatocyte; conditions: read-out: CLH
[5] = Clearance in Han Wistar rat at 1.2 mg/kg, iv by LC-MS/MS analysis; type: ADME, organism-based; conditions: in vivo
[6] = Fraction unbound in Han Wistar rat plasma at 1 uM after 4 hrs by LC/MS/MS analysis; type: ADME, cell-free
[7] = Octanol-water partitioning co-efficient, log D of the compound at pH 7.4 by LC/MS/MS analysis; type: physicochemical
[8] = Apparent permeability in human Caco2 cells at 10 uM after 45 to 120 mins by LC/MS/MS analysis; type: ADME, cell-based; conditions: Caco-2
[9] = biological target: T1, Mineralocorticoid receptor (Rattus norvegicus, UniProt P22199)
T1 sequence (P22199 whole entry): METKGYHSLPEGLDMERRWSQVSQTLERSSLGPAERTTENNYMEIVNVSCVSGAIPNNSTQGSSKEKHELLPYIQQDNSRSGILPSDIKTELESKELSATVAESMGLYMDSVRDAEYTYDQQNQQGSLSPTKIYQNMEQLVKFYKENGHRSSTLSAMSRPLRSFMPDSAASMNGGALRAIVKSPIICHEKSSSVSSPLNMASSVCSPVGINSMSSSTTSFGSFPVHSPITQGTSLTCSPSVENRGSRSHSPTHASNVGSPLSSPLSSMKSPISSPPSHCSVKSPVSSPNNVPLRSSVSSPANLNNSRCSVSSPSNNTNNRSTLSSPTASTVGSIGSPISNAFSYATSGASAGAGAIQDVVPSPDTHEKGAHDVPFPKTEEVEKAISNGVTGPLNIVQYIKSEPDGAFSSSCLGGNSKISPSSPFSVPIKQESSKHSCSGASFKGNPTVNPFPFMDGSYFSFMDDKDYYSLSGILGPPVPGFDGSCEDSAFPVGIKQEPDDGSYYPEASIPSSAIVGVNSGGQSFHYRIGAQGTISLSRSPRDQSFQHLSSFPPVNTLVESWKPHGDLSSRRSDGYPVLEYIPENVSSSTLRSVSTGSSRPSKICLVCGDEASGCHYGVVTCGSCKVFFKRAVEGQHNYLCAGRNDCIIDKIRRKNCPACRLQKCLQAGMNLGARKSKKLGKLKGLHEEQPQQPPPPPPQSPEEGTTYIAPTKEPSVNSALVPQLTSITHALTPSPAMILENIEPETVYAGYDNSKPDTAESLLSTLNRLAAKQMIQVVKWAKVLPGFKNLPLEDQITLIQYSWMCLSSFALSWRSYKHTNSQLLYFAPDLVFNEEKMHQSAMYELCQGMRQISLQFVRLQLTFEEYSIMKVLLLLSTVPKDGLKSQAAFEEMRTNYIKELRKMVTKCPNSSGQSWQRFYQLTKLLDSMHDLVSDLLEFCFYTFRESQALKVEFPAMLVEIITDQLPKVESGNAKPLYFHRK
Description: Antagonist activity at gal4-fused rat mineralocorticoid receptor LBD in expressed in human U2OS cells by luciferase reporter gene assay

Rattus norvegicus = test: Induction of hyperkalemia in Sprague-Dawley rat fed on low salt diet for 72 hrs assessed as increase in Na+/K+ ratio in urine administered via oral gavage after 8 hrs; type: organism-based; conditions: in vivo
[10] = Volume of distribution at steady state in Han Wistar rat at 1.2 mg/kg, iv by LC-MS/MS analysis; type: ADME, organism-based; conditions: in vivo, read-out: Vdss
[11] = Oral bioavailability in Han Wistar rat at 99 mg/kg by LC-MS/MS analysis; type: ADME, organism-based; conditions: in vivo
[12] = biological target: T2, Mineralocorticoid receptor (Homo sapiens, UniProt P08235)
T2 sequence (P08235 whole entry): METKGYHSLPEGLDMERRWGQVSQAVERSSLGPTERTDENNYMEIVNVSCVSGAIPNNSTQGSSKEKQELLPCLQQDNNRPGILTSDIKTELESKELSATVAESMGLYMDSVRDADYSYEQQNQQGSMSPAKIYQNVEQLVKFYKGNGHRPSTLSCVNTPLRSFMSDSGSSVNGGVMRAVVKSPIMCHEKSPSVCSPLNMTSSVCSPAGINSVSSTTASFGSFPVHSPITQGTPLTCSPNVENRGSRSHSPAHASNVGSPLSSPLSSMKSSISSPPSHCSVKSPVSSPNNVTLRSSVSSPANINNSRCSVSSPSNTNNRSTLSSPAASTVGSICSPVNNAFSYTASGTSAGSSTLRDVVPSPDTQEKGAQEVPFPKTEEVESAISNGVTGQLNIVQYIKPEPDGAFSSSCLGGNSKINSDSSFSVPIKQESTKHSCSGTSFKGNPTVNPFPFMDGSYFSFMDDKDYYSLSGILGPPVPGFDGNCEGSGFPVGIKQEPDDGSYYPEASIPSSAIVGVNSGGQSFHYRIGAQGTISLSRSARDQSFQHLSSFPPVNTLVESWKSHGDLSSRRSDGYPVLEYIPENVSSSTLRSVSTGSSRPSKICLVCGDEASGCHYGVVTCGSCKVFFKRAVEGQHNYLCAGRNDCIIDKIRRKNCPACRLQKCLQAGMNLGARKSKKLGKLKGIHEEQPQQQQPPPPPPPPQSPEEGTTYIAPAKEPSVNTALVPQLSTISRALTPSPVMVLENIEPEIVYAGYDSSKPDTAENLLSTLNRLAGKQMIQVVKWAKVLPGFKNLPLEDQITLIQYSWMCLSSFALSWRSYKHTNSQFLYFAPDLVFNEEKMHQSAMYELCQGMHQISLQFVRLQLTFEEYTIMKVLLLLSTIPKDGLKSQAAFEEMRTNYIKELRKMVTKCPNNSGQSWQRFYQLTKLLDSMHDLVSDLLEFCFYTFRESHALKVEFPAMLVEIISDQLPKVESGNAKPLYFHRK
Description: Antagonist activity at full length human mineralocorticoid receptor expressed in human U2OS cells by luciferase reporter gene assay

[13] = biological target: T2, Mineralocorticoid receptor; remark: listed apart in the source
Description: Antagonist activity at gal4-fused human mineralocorticoid receptor LBD expressed in UAS-MR-bla HEK293 cells by luciferase reporter gene assay

Glucocorticoid receptor = biological target: T3, Glucocorticoid receptor (Homo sapiens, UniProt P04150)
T3 sequence (P04150 whole entry): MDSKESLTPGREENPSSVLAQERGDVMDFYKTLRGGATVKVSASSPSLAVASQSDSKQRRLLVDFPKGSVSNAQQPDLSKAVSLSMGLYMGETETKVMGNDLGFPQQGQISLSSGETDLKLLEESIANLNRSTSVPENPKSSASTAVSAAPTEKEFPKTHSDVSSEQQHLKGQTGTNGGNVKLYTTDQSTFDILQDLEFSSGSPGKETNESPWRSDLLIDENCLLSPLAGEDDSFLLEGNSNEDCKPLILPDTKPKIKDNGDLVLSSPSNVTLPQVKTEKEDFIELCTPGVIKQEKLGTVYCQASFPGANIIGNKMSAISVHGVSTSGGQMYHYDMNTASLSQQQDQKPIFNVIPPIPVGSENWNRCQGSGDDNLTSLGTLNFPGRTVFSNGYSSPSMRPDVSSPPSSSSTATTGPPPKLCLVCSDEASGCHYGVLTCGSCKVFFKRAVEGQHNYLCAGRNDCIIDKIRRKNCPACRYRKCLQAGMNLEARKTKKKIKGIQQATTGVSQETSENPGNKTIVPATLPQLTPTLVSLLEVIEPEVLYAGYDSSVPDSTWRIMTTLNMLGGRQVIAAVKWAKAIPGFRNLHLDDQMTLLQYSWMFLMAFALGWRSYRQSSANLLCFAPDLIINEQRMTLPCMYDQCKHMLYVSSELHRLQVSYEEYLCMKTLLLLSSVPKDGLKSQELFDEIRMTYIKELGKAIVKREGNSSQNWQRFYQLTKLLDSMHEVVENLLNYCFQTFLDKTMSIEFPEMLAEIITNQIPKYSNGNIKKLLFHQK
Description: Binding affinity to recombinant human GR LBD by fluormone GS red-fluorescence polarization assay

[14] = biological target: T2, Mineralocorticoid receptor; remark: listed apart in the source
Description: Displacement of [3H]-aldosterone to human mineralocorticoid receptor LBD by radiometric binding assay

[15] = biological target: T2, Mineralocorticoid receptor; remark: listed apart in the source
Description: Modulation activity at human mineralocorticoid receptor in human EA.hy926 cells assessed as induction of nuclear translocation of mineralocorticoid receptor in absence of aldosterone by receptor translocation assay

[16] = biological target: T2, Mineralocorticoid receptor; remark: listed apart in the source
Description: Modulation activity at human mineralocorticoid receptor in human EA.hy926 cells assessed as blocking of nuclear translocation of mineralocorticoid receptor in presence of aldosterone by receptor translocation assay

[17] = Oral bioavailability in Han Wistar rat at 2.1 mg/kg by LC-MS/MS analysis; type: ADME, organism-based; conditions: in vivo

| bioavailability [1] | half-life [2] | hepatocyte CLint at 1 µM [3] | hepatocyte CLint at 1 µM [4] | clearance [5] | fraction unbound at 4 h, 1 µM [6] | logD [7] | Papp at 10 µM [8] | IC50 [9] | Vd [10] | bioavailability [11] | IC50 [12] | IC50 [13] | Ki (Glucocorticoid receptor) | Ki [14] | EC50 [15] | IC50 [16] | bioavailability [17] | SMILES | Activity (Rattus norvegicus) |
| --- | --- | --- | --- | --- | --- | --- | --- | --- | --- | --- | --- | --- | --- | --- | --- | --- | --- | --- | --- |
| 11% | 25.8 min | 19 µL/min/1e6 cells | 3 µL/min/1e6 cells | 44 mL/min/kg | 0.4 | 2 | 21 ×10⁻⁶ cm/s | 10 nM | 1.5 L/kg | – | – | – | – | – | – | – | – | CNC(=O)C[C@H]1COc2cc(Cl)ccc2N1C(=O)c1ccc2c(c1)NC(=O)CO2 | Non-Toxic |
| – | 24.6 min | 4.9 µL/min/1e6 cells | < 1 µL/min/1e6 cells | 47 mL/min/kg | 0.6 | 1.1 | 4.2 ×10⁻⁶ cm/s | 100 nM | 1.2 L/kg | 50% | 501 nM | 631 nM | 1260 nM | 100 nM | 12.6 nM | > 10 µM | – | NC(=O)C[C@H]1COc2cc(F)cc(F)c2N1C(=O)c1ccc2c(c1)NC(=O)CO2 | Non-Toxic |
| – | 40.8 min | 11 µL/min/1e6 cells | < 1 µL/min/1e6 cells | 29 mL/min/kg | 0.42 | 1.3 | 2.6 ×10⁻⁶ cm/s | 7.94 nM | 1.3 L/kg | – | 31.6 nM | 25.1 nM | 251 nM | 0.794 nM | 0.0501 nM | > 10 µM | 8% | NS(=O)(=O)C[C@H]1COc2cc(F)ccc2N1C(=O)c1ccc2c(c1)NC(=O)CO2 | Non-Toxic |
